Measurements: paper PMC10733463, “Berberine-microbiota interplay: orchestrating gut health through modulation of the gut microbiota and metabolic transformation into bioactive metabolites” (Frontiers in Pharmacology, 2023)

System: caecal microbiota cultures
Experiment: 16S sequencing of total (DNA) and active (cDNA) community in caecal microbiota cultures, BBR vs Control
Assay type: cell-based, broiler chicken
Settings: 48 h; for L2FC BBRRNA vs ControlRNA: active (cDNA) community; for L2FC BBRRNA vs BBRDNA: active vs total community in BBR group; for L2FC BBRDNA vs ControlDNA: total (DNA) community
[1] = OTU 563086 ([Ruminococcus] torques group)
[2] = OTU 574038 (uncultured Lachnospiraceae)
[3] = OTU 579244 (Ruminiclostridium 9)
[4] = OTU 592616 (Erysipelatoclostridium)
[5] = OTU 647215 (uncultured Ruminococcaceae)
[6] = OTU 843454 (Family_Lachnospiraceae)
[7] = OTU 1094991 (Ruminococcaceae UCG-005)
[8] = OTU 2265722 (uncultured Lachnospiraceae)
[9] = OTU 4404181 (uncultured Ruminococcaceae)
[10] = OTU New.CleanUp.ReferenceOTU4902 (Erysipelatoclostridium)
[11] = OTU New.ReferenceOTU85 (Anaerofilum)
[12] = OTU New.ReferenceOTU111 (Lachnospiraceae UCG-010)
[13] = OTU New.ReferenceOTU118 (Erysipelatoclostridium)
[14] = OTU New.ReferenceOTU144 (Erysipelatoclostridium)
[15] = OTU New.ReferenceOTU364 (Streptococcus)
[16] = OTU New.ReferenceOTU377 (uncultured Ruminococcaceae)
[17] = OTU New.ReferenceOTU392 (Intestinimonas)
[18] = OTU New.ReferenceOTU395 (Ruminiclostridium 9)
[19] = OTU New.ReferenceOTU429 (Erysipelatoclostridium)
[20] = OTU New.ReferenceOTU462 (Erysipelatoclostridium)
[21] = OTU New.ReferenceOTU476 (Escherichia-Shigella)
[22] = OTU New.ReferenceOTU486 (Streptococcus)
[23] = OTU New.ReferenceOTU551 (uncultured Ruminococcaceae)

COc1ccc2cc3[n+](cc2c1OC)CCc1cc2c(cc1-3)OCO2 [Berberine, Berberine chloride]
L2FC BBRRNA vs ControlRNA [1]: -0.24 | L2FC BBRRNA vs BBRDNA [1]: -1.93 | L2FC BBRDNA vs ControlDNA [1]: -0.39 | L2FC BBRRNA vs ControlRNA (OTU 564334 (Oscillibacter)): -0.38 | L2FC BBRRNA vs BBRDNA (OTU 564334 (Oscillibacter)): 2.35 | L2FC BBRDNA vs ControlDNA (OTU 564334 (Oscillibacter)): -0.21 | L2FC BBRRNA vs ControlRNA [2]: -1.65 | L2FC BBRRNA vs BBRDNA [2]: -0.24 | L2FC BBRDNA vs ControlDNA [2]: -2.16 | L2FC BBRRNA vs ControlRNA [3]: -1.11 | L2FC BBRRNA vs BBRDNA [3]: 2.49 | L2FC BBRDNA vs ControlDNA [3]: -1.32 | L2FC BBRRNA vs ControlRNA (OTU 585227 (Oscillibacter)): 0.12 | L2FC BBRRNA vs BBRDNA (OTU 585227 (Oscillibacter)): 2.44 | L2FC BBRDNA vs ControlDNA (OTU 585227 (Oscillibacter)): 0.21 | L2FC BBRRNA vs ControlRNA [4]: 0.37 | L2FC BBRRNA vs BBRDNA [4]: 1.49 | L2FC BBRDNA vs ControlDNA [4]: 0.67 | L2FC BBRRNA vs ControlRNA [5]: 0.58 | L2FC BBRRNA vs BBRDNA [5]: 2.24 | L2FC BBRDNA vs ControlDNA [5]: 0.49 | L2FC BBRRNA vs ControlRNA (OTU 813944 (Lactobacillus)): 1.85 | L2FC BBRRNA vs BBRDNA (OTU 813944 (Lactobacillus)): 1.33 | L2FC BBRDNA vs ControlDNA (OTU 813944 (Lactobacillus)): 1.53 | L2FC BBRRNA vs ControlRNA (OTU 842786 (Intestinimonas)): -0.59 | L2FC BBRRNA vs BBRDNA (OTU 842786 (Intestinimonas)): 2.24 | L2FC BBRDNA vs ControlDNA (OTU 842786 (Intestinimonas)): -0.09 | L2FC BBRRNA vs ControlRNA [6]: 0.55 | L2FC BBRRNA vs BBRDNA [6]: -1.17 | L2FC BBRDNA vs ControlDNA [6]: -0.19 | L2FC BBRRNA vs ControlRNA (OTU 847728 (Ruminococcus 2)): -0.72 | L2FC BBRRNA vs BBRDNA (OTU 847728 (Ruminococcus 2)): 1.54 | L2FC BBRDNA vs ControlDNA (OTU 847728 (Ruminococcus 2)): -0.88 | L2FC BBRRNA vs ControlRNA [7]: -1.26 | L2FC BBRRNA vs BBRDNA [7]: 1.01 | L2FC BBRDNA vs ControlDNA [7]: -1.67 | L2FC BBRRNA vs ControlRNA (OTU 1107057 (Anaerostipes)): -0.90 | L2FC BBRRNA vs BBRDNA (OTU 1107057 (Anaerostipes)): -2.55 | L2FC BBRDNA vs ControlDNA (OTU 1107057 (Anaerostipes)): -1.14 | L2FC BBRRNA vs ControlRNA (OTU 1132942 (Butyricicoccus)): 0.64 | L2FC BBRRNA vs BBRDNA (OTU 1132942 (Butyricicoccus)): -3.15 | L2FC BBRDNA vs ControlDNA (OTU 1132942 (Butyricicoccus)): 0.37 | L2FC BBRRNA vs ControlRNA [8]: 2.76 | L2FC BBRRNA vs BBRDNA [8]: -0.46 | L2FC BBRDNA vs ControlDNA [8]: 1.22 | L2FC BBRRNA vs ControlRNA [9]: 0.08 | L2FC BBRRNA vs BBRDNA [9]: -1.72 | L2FC BBRDNA vs ControlDNA [9]: 0.40 | L2FC BBRRNA vs ControlRNA [10]: -2.19 | L2FC BBRRNA vs BBRDNA [10]: -0.05 | L2FC BBRDNA vs ControlDNA [10]: -1.03 | L2FC BBRRNA vs ControlRNA [11]: -1.45 | L2FC BBRRNA vs BBRDNA [11]: -0.84 | L2FC BBRDNA vs ControlDNA [11]: -1.62 | L2FC BBRRNA vs ControlRNA [12]: -1.27 | L2FC BBRRNA vs BBRDNA [12]: -1.92 | L2FC BBRDNA vs ControlDNA [12]: -0.42 | L2FC BBRRNA vs ControlRNA [13]: -1.90 | L2FC BBRRNA vs BBRDNA [13]: -0.75 | L2FC BBRDNA vs ControlDNA [13]: -0.82 | L2FC BBRRNA vs ControlRNA [14]: 0.42 | L2FC BBRRNA vs BBRDNA [14]: 1.64 | L2FC BBRDNA vs ControlDNA [14]: 0.55 | L2FC BBRRNA vs ControlRNA [15]: -0.92 | L2FC BBRRNA vs BBRDNA [15]: -0.91 | L2FC BBRDNA vs ControlDNA [15]: -1.70 | L2FC BBRRNA vs ControlRNA [16]: -0.22 | L2FC BBRRNA vs BBRDNA [16]: 1.91 | L2FC BBRDNA vs ControlDNA [16]: -0.81 | L2FC BBRRNA vs ControlRNA [17]: -0.28 | L2FC BBRRNA vs BBRDNA [17]: 1.69 | L2FC BBRDNA vs ControlDNA [17]: -0.31 | L2FC BBRRNA vs ControlRNA [18]: -1.01 | L2FC BBRRNA vs BBRDNA [18]: 2.37 | L2FC BBRDNA vs ControlDNA [18]: -1.00 | L2FC BBRRNA vs ControlRNA [19]: 0.23 | L2FC BBRRNA vs BBRDNA [19]: 1.73 | L2FC BBRDNA vs ControlDNA [19]: 0.65 | L2FC BBRRNA vs ControlRNA [20]: -0.55 | L2FC BBRRNA vs BBRDNA [20]: 1.51 | L2FC BBRDNA vs ControlDNA [20]: -0.78 | L2FC BBRRNA vs ControlRNA [21]: -0.42 | L2FC BBRRNA vs BBRDNA [21]: 1.67 | L2FC BBRDNA vs ControlDNA [21]: -0.75 | L2FC BBRRNA vs ControlRNA [22]: -0.10 | L2FC BBRRNA vs BBRDNA [22]: -0.33 | L2FC BBRDNA vs ControlDNA [22]: -2.01 | L2FC BBRRNA vs ControlRNA [23]: 0.00 | L2FC BBRRNA vs BBRDNA [23]: 2.70 | L2FC BBRDNA vs ControlDNA [23]: 0.58
